Measurements reported in patent publication US20260262643A1, “HERBICIDAL BENZOXAZINES” (FMC CORPORATION, priority 2022, published 2026).

Key:
[1] = system: foxtail, giant; test: Test A postemergence; format: in vivo, Setaria faberi; settings: for pest or weed control at 1000 g/ha: Setaria faberi, post-emergence, 240 h, read-out: Plant response rating, Foxtail, Giant
Procedure, shortened: (§1)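 Weeds and crops in loam–sand blend were sprayed preemergence onto soil or postemergence at 2–10 cm (one- to two-leaf stage). Test chemicals were in a non-phytotoxic solvent with surfactant. After 10 days in the greenhouse, injury was rated visually against untreated controls on a 0 (no effect) to 100 (complete control) scale.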

[2] = system: ryegrass, Italian; test: Test A preemergence; format: in vivo, Lolium multiflorum; settings: for pest or weed control at 1000 g/ha: Lolium multiflorum, pre-emergence, 240 h, read-out: Plant response rating, Ryegrass, Italian
Procedure, shortened: as §1

[3] = system: Pigweed, Redroot; test: Test A postemergence; format: in vivo, Amaranthus retroflexus
From the text: Seeds of plant species selected from barnyardgrass (Echinochloa crusgalli), blackgrass (Alopecurus myosuroides), corn (Zea mays), foxtail, giant (giant foxtail, Setaria faberi), goosegrass (Eleusine indica), kochia (Bassia scoparia), oat, wild (wild oat, Avena fatua), pigweed, palmer (palmer amaranth, palmer pigweed, Amaranthus palmeri), Pigweed, Redroot (redroot pigweed, Amaranthus retroflexus), ragweed (common ragweed, Ambrosia artemisiifolia), ryegrass, Italian (italian ryegrass, Lolium multiflorum), soybean (Glycine max), and wheat (Triticum aestivum) were planted into a blend of loam soil and sand and treated preemergence with a directed soil spray using test chemicals formulated in a non-phytotoxic solvent mixture which included a surfactant. At the same time, plants selected from these crops and weed species and also galium (catchweed bedstraw, Galium aparine) and horseweed (Erigeron canadensis) were planted in pots containing the same blend of loam soil and sand and treated with postemergence applications of test chemicals formulated in the same manner. Plants ranged in height from 2 to 10 cm and were in the one- to two-leaf stage for the postemergence treatment. Treated plants and untreated controls were maintained in a greenhouse for 10 days, after which time all treated plants were compared to untreated controls and visually evaluated for injury. Plant response ratings, summarized in Table A, are based on a 0 to 100 scale where 0 is no effect and 100 is complete control. A dash (-) response means no test result.

[4] = system: barnyardgrass; test: Test B flooded paddy test; format: in vivo, Echinochloa crus-galli; settings: 250 g ai/ha, Flood, 13 days, 0 to 100 scale (0 no effect, 100 complete control); for pest or weed control at 250 g/ha: Echinochloa crus-galli, 312 h, read-out: Plant response rating, Barnyardgrass
Procedure, shortened: (§2)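 Application into standing water (3 cm above soil) at the two-leaf stage; flood depth held constant. Evaluation: day 13, visual comparison with controls, 0 = no injury, 100 = complete control.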

[5] = system: barnyardgrass; test: Test A preemergence; format: in vivo, Echinochloa crusgalli
Procedure, shortened: as §1

[6] = system: ryegrass, Italian; test: Test A postemergence; format: in vivo, Lolium multiflorum; settings: for pest or weed control at 1000 g/ha: Lolium multiflorum, post-emergence, 240 h, read-out: Plant response rating, Ryegrass, Italian
Procedure, shortened: as §1

[7] = system: ragweed; test: Test A preemergence; format: in vivo, Ambrosia artemisiifolia; settings: for pest or weed control at 1000 g/ha: Ambrosia artemisiifolia, pre-emergence, 240 h, read-out: Plant response rating, Ragweed
Procedure, shortened: as §1

[8] = system: foxtail, giant; test: Test A preemergence; format: in vivo, Setaria faberi; settings: for pest or weed control at 1000 g/ha: Setaria faberi, pre-emergence, 240 h, read-out: Plant response rating, Foxtail, Giant
Procedure, shortened: as §1

[9] = system: barnyardgrass; test: Test A postemergence; format: in vivo, Echinochloa crusgalli
Procedure, shortened: as §1

[10] = system: ragweed; test: Test A postemergence; format: in vivo, Ambrosia artemisiifolia; settings: for pest or weed control at 1000 g/ha: Ambrosia artemisiifolia, post-emergence, 240 h, read-out: Plant response rating, Ragweed
Procedure, shortened: as §1

[11] = system: galium; test: Test A postemergence; format: in vivo, Galium aparine; settings: for pest or weed control at 1000 g/ha: Galium, post-emergence, 240 h, read-out: Plant response rating, Galium
Procedure, shortened: as §1

[12] = system: kochia; test: Test A postemergence; format: in vivo, Bassia scoparia; settings: for pest or weed control at 1000 g/ha: Bassia scoparia, post-emergence, 240 h, read-out: Plant response rating, Kochia
Procedure, shortened: as §1

[13] = system: rice; test: Test B flooded paddy test; format: in vivo, Oryza sativa; settings: 250 g ai/ha, Flood, 13 days, 0 to 100 scale (0 no effect, 100 complete control); for plant injury at 250 g/ha: Oryza sativa, 312 h, read-out: Plant response rating, Rice
Procedure, shortened: as §2

[14] = system: corn; test: Test A postemergence; format: in vivo, Zea mays; settings: for Corn plant response rating (crop injury, 0 = no effect, 100 = complete kill) at 1000 g/ha: Zea mays, post-emergence, 240 h
Procedure, shortened: as §1

[15] = system: kochia; test: Test A preemergence; format: in vivo, Bassia scoparia; settings: for pest or weed control at 1000 g/ha: Bassia scoparia, pre-emergence, 240 h, read-out: Plant response rating, Kochia
Procedure, shortened: as §1

[16] = system: Pigweed, Redroot; test: Test A preemergence; format: in vivo, Amaranthus retroflexus
Procedure, shortened: as §1

[17] = system: sedge, umbrella; test: Test B flooded paddy test; format: in vivo, Cyperus difformis; settings: 250 g ai/ha, Flood, 13 days, 0 to 100 scale (0 no effect, 100 complete control); for pest or weed control at 250 g/ha: Cyperus difformis, 312 h, read-out: Plant response rating, Sedge, Umbrella
Procedure, shortened: as §2

[18] = system: ducksalad; test: Test B flooded paddy test; format: in vivo, Heteranthera limosa; settings: 250 g ai/ha, Flood, 13 days, 0 to 100 scale (0 no effect, 100 complete control); for pest or weed control at 250 g/ha: Heteranthera limosa, 312 h, read-out: Plant response rating, Ducksalad
Procedure, shortened: as §2

[19] = system: blackgrass; test: Test A postemergence; format: in vivo, Alopecurus myosuroides; settings: for pest or weed control at 1000 g/ha: Alopecurus myosuroides, post-emergence, 240 h, read-out: Plant response rating, Blackgrass
Procedure, shortened: as §1

[20] = system: wheat; test: Test A postemergence; format: in vivo, Triticum aestivum; settings: for plant injury at 1000 g/ha: Triticum aestivum, post-emergence, 240 h, read-out: Plant response rating, Wheat
Procedure, shortened: as §1

[21] = 1000 g ai/ha, Postemergence, 0 to 100 scale
[22] = 1000 g ai/ha, 0 to 100 scale (0 no effect, 100 complete control), 10 days
[23] = 125 g ai/ha, postemergence, 10 days, visual injury, 0 to 100 scale (0 no effect, 100 complete control)
[24] = 500 g ai/ha, Postemergence, 0 to 100 scale
[25] = 125 g ai/ha, visual injury after 10 days, 0 to 100 scale, 0 is no effect, 100 is complete control
[26] = 500 g ai/ha, 0 to 100 scale (0 no effect, 100 complete control), 10 days

SMILES: O=C(c1cccc(-n2cncn2)c1)N1CC(C2CC2)Oc2c(Cl)cccc21 (centres unmarked) [Compound 22, (8-Chloro-2-cyclopropyl-2,3-dihydro-4H-1,4-benzoxazin-4-yl)[3-(1H-1,2,4-triazol-1-yl)phenyl]methanone]
- pest or weed control at 1000 g/ha [1, 21]: 80%
- pest or weed control at 1000 g/ha [2, 22]: 90%
- Plant response rating, Pigweed, Redroot [3, 21]: 60
- pest or weed control at 250 g/ha [4]: 0%
- Plant response rating, Barnyardgrass [5, 22]: 90
- pest or weed control at 1000 g/ha [6, 21]: 60%
- pest or weed control at 1000 g/ha [7, 22]: 20%
- pest or weed control at 1000 g/ha [8, 22]: 90%
- Plant response rating, Barnyardgrass [9, 21]: 50
- pest or weed control at 1000 g/ha [10, 21]: 50%
- pest or weed control at 1000 g/ha [11, 21]: 90%
- pest or weed control at 1000 g/ha [12, 21]: 70%
- plant injury at 250 g/ha [13]: 0%
- Corn plant response rating (crop injury, 0 = no effect, 100 = complete kill) at 1000 g/ha [14, 21]: 70%
- pest or weed control at 1000 g/ha [15, 22]: 50%
- Plant response rating, Pigweed, Redroot [16, 22]: 60
- pest or weed control at 250 g/ha [17]: 0%
- pest or weed control at 250 g/ha [18]: 0%
- pest or weed control at 1000 g/ha [19, 21]: 80%
- plant injury at 1000 g/ha [20, 21]: 60%

SMILES: CC1CN(C(=O)c2ccnc(-n3cncn3)c2)c2ccccc2O1 (centres unmarked) [Compound 19]
- Plant response rating, Foxtail, Giant [1, 21]: 60
- Plant response rating, Ryegrass, Italian [2, 22]: 80
- Plant response rating, Pigweed, Redroot [3, 21]: 40
- Plant response rating, Barnyardgrass [4]: 0
- Plant response rating, Barnyardgrass [5, 22]: 90
- Plant response rating, Ryegrass, Italian [6, 21]: 60
- Plant response rating, Ragweed [7, 22]: 80
- Plant response rating, Foxtail, Giant [8, 22]: 100
- Plant response rating, Barnyardgrass [9, 21]: 80
- Plant response rating, Ragweed [10, 21]: 0
- Plant response rating, Galium [11, 21]: 90
- Plant response rating, Kochia [12, 21]: 30
- Plant response rating, Rice [13]: 0
- Plant response rating, Corn [14, 21]: 50
- Plant response rating, Kochia [15, 22]: 60
- Plant response rating, Pigweed, Redroot [16, 22]: 0
- Plant response rating, Sedge, Umbrella [17]: 0
- Plant response rating, Ducksalad [18]: 0
- Plant response rating, Blackgrass [19, 21]: 70
- Plant response rating, Wheat [20, 21]: 70

SMILES: CCC1CN(C(=O)c2cccc(-n3cncn3)c2)c2cccc(Cl)c2O1 (racemic) [Compound 7]
- Plant response rating, Foxtail, Giant [1, 23]: 10
- Plant response rating, Foxtail, Giant [1, 24]: 20
- Plant response rating, Ryegrass, Italian [2, 25]: 50
- Plant response rating, Ryegrass, Italian [2, 26]: 50
- Plant response rating, Pigweed, Redroot [3, 23]: 0
- Plant response rating, Pigweed, Redroot [3, 24]: 30
- Plant response rating, Barnyardgrass [4]: 0
- Plant response rating, Barnyardgrass [5, 25]: 0
- Plant response rating, Barnyardgrass [5, 26]: 0
- Plant response rating, Ryegrass, Italian [6, 23]: 0
- Plant response rating, Ryegrass, Italian [6, 24]: 0
- Plant response rating, Ragweed [7, 25]: 0
- Plant response rating, Ragweed [7, 26]: 0
- Plant response rating, Foxtail, Giant [8, 25]: 10
- Plant response rating, Foxtail, Giant [8, 26]: 80
- Plant response rating, Barnyardgrass [9, 23]: 10
- Plant response rating, Barnyardgrass [9, 24]: 20
- Plant response rating, Ragweed [10, 23]: 0
- Plant response rating, Ragweed [10, 24]: 0
- Plant response rating, Galium [11, 23]: 0
- Plant response rating, Galium [11, 24]: 60
- Plant response rating, Kochia [12, 23]: 0
- Plant response rating, Kochia [12, 24]: 20
- Plant response rating, Rice [13]: 0
- Plant response rating, Corn [14, 23]: 0
- Plant response rating, Corn [14, 24]: 0
- Plant response rating, Kochia [15, 25]: 40
- Plant response rating, Kochia [15, 26]: 80
- Plant response rating, Pigweed, Redroot [16, 25]: 0
- Plant response rating, Pigweed, Redroot [16, 26]: 40
- Plant response rating, Sedge, Umbrella [17]: 0
- Plant response rating, Ducksalad [18]: 0
- Plant response rating, Blackgrass [19, 23]: 0
- Plant response rating, Blackgrass [19, 24]: 30
- Plant response rating, Wheat [20, 23]: 30
- Plant response rating, Wheat [20, 24]: 40

SMILES: CC1CN(C(=O)c2cccc(-n3cncn3)c2)c2cccc(F)c2O1 (centres unmarked) [Compound 20]
- Plant response rating, Foxtail, Giant [1, 21]: 90
- Plant response rating, Ryegrass, Italian [2, 22]: 100
- Plant response rating, Pigweed, Redroot [3, 21]: 30
- Plant response rating, Barnyardgrass [4]: 0
- Plant response rating, Barnyardgrass [5, 22]: 90
- Plant response rating, Ryegrass, Italian [6, 21]: 70
- Plant response rating, Ragweed [7, 22]: 80
- Plant response rating, Foxtail, Giant [8, 22]: 100
- Plant response rating, Barnyardgrass [9, 21]: 90
- Plant response rating, Ragweed [10, 21]: 30
- Plant response rating, Galium [11, 21]: 90
- Plant response rating, Kochia [12, 21]: 30
- Plant response rating, Rice [13]: 0
- Plant response rating, Corn [14, 21]: 60
- Plant response rating, Kochia [15, 22]: 80
- Plant response rating, Pigweed, Redroot [16, 22]: 80
- Plant response rating, Sedge, Umbrella [17]: 35
- Plant response rating, Ducksalad [18]: 85
- Plant response rating, Blackgrass [19, 21]: 70
- Plant response rating, Wheat [20, 21]: 70

SMILES: C[C@H]1CN(C(=O)c2cccc(-n3cncn3)c2)c2cccc(Cl)c2O1 [Compound 18, [(2S)-8-Chloro-2,3-dihydro-2-methyl-4H-1,4-benzoxazin-4-yl][3-(1H-1,2,4-triazol-1-yl)phenyl]methanone]
- pest or weed control at 1000 g/ha [1, 21]: 90%
- pest or weed control at 1000 g/ha [2, 22]: 90%
- Plant response rating, Pigweed, Redroot [3, 21]: 40
- pest or weed control at 250 g/ha [4]: 0%
- Plant response rating, Barnyardgrass [5, 22]: 90
- pest or weed control at 1000 g/ha [6, 21]: 80%
- pest or weed control at 1000 g/ha [7, 22]: 80%
- pest or weed control at 1000 g/ha [8, 22]: 100%
- Plant response rating, Barnyardgrass [9, 21]: 70
- pest or weed control at 1000 g/ha [10, 21]: 20%
- pest or weed control at 1000 g/ha [11, 21]: 90%
- pest or weed control at 1000 g/ha [12, 21]: 50%
- plant injury at 250 g/ha [13]: 0%
- Corn plant response rating (crop injury, 0 = no effect, 100 = complete kill) at 1000 g/ha [14, 21]: 40%
- pest or weed control at 1000 g/ha [15, 22]: 70%
- Plant response rating, Pigweed, Redroot [16, 22]: 100
- pest or weed control at 250 g/ha [17]: 0%
- pest or weed control at 250 g/ha [18]: 0%
- pest or weed control at 1000 g/ha [19, 21]: 70%
- plant injury at 1000 g/ha [20, 21]: 0%
